As usually defined, the boiling point is the temperature at which the vapour pressure of the liquid equals the pressure above it. As a reminder, the melting point is the temperature, or range, at which the solid turns liquid.

The text below walks through data of the OPERA property sets (Mansouri et al. 2018).

Conditions in one data set: not given
`Cc1cc(C(C)(C)C)ccc1O` registered a boiling point of 237 °C, a log10 vapour pressure (mmHg) of -1.55 and a melting point of 27.5 °C.

For the compound `O=[N+]([O-])c1ccc(C(F)(F)F)cc1`, the melting point was 39 °C.

In turn, `Cc1cc(C(=O)O)ccc1N` displayed a melting point of 170 °C.

Turning to `CCCC=CC(=O)O`, the boiling point stood at 216 °C and the melting point is 36.5 °C.

The compound `Cc1cccc(C(=O)O)c1S(=O)(=O)NC(=O)Nc1nc(OCC(F)(F)F)nc(N(C)C)n1` showed a melting point of 162 °C.

In turn, `C=C/C=C\CC1=C(C)[C@@H](OC(=O)[C@@H]2[C@@H](/C=C(\C)C(=O)OC)C2(C)C)CC1=O` came in with a log10 vapour pressure (mmHg) of -6.4.

As to `Cc1cc(OC(=O)N(C)C)n(-c2ccccc2)n1`, the melting point stood at 50 °C.

Compound `C=CCc1ccccc1` gave a boiling point of 156 °C and a melting point of -40 °C.

Take `CC(Cl)(Cl)C(=O)[O-].[Na+]`: the melting point was found to be 166 °C.

On to `O=C(O)c1cccs1`, for which the melting point is 130 °C.

The compound `Cc1cccc(O)c1[N+](=O)[O-]` registered a log10 Henry constant (atm·m³/mol) of -5.51, a log10 vapour pressure (mmHg) of -1.43 and a melting point of 37 °C.

`C=CC(=O)OCC(CO)(COC(=O)C=C)COC(=O)C=C`: the ready biodegradability result was “not readily biodegradable”.

`Cc1cc(Cl)cc([N+](=O)[O-])c1` displayed a melting point of 61 °C.

`CCCCC(CC)COP(=O)(O)CC(CC)CCCC` (stereo not drawn): the ready biodegradability result is “not readily biodegradable”.

For `C/C=C\C(=O)OC1C[C@H]2O[C@@H]3C=C(C)C(=O)C[C@]3(C)[C@]1(C)C21CO1` (stereo partly drawn), the melting point turned out to be 118 °C.

With `O=C(CN1CCN(Cc2ccc3c(c2)OCO3)CC1)N1c2ccccc2Sc2ccccc21`, the melting point is 142 °C.

In turn, `CCCC(CC)C(C)(C)C` (stereo not drawn) registered a boiling point of 156 °C.

Compound `CCCOCC(C)OCC(C)O` (stereo not drawn) yielded a boiling point of 212 °C and a melting point of 7.08 °C.

For `BrC=C(Br)Br`, the boiling point was 164 °C.

`C1=CCCCC=C1` had a boiling point of 120 °C and a melting point of -110 °C.

`CCCCCSCCCCC`: the melting point was -51.3 °C.

Compound `Cc1ccc([N+](=O)[O-])cc1` returned a boiling point of 238 °C, a log10 Henry constant (atm·m³/mol) of -5.25, a log10 vapour pressure (mmHg) of -1.8 and a melting point of 51.6 °C. The ready biodegradability entry is recorded as “not readily biodegradable”.

As for `ClC(COCC(Cl)C(Cl)(Cl)Cl)C(Cl)(Cl)Cl` (stereo not drawn), the melting point was -50 °C and the ready biodegradability result is listed as “not readily biodegradable”.

Compound `COc1cc2c(c(OC)c1OC)-c1ccc(O)c(=O)cc1[C@@H](NC(C)=O)CC2` gave a melting point of 178 °C.

In turn, `CCC(C(=O)O)c1ccc(N2Cc3ccccc3C2=O)cc1` (stereo not drawn) registered a melting point of 183 °C.

`O=C(O)c1cc(Cl)c(O)c(Cl)c1` yielded a melting point of 265 °C.

`C(=Nc1ccccc1)Nc1ccccc1` displayed a melting point of 142 °C.

The compound `COc1cccc(S)c1` had a boiling point of 224 °C.

Compound `CCCCCCCCCCCCCCCCCCCC(=O)OCC` gave a log10 vapour pressure (mmHg) of -7.72 and a melting point of 50 °C.

`O=Cc1cccc(C(=O)O)c1` returned a melting point of 174 °C.

Turning to `O=C(O)c1cc(F)c(F)c(F)c1F`, the melting point was determined as 86 °C.

`CC(Cl)=C(Cl)Cl`: the boiling point came out at 118 °C.

Consider `CC(=O)OCC(=O)[C@@]12N=C(C)O[C@@H]1C[C@H]1[C@@H]3CCC4=CC(=O)C=C[C@]4(C)[C@H]3[C@@H](O)C[C@@]12C`, for which the melting point came out at 256 °C.

As for `COC(=O)C(F)(F)C(F)(F)C(F)(F)C(F)(F)C(F)(F)C(F)(F)C(F)(F)F`, the boiling point came to 158 °C.

In the case of `C[C@@H](N)c1ccccc1`, the ready biodegradability entry is “not readily biodegradable”.

`Cc1c(Cl)ccc(Cl)c1Cl`: the log10 Henry constant (atm·m³/mol) is -2.82.

`CCSCc1ccccc1OC(=O)NC` registered a log10 vapour pressure (mmHg) of -5.15 and a melting point of 33.4 °C.

For `Brc1cccc(-c2ccccc2)c1`, the boiling point turned out to be 300 °C.

Turning to `O=C(O)c1cccc2ccccc12`, the ready biodegradability entry is on record as “not readily biodegradable”.

As for `CC(=O)Oc1ccc(OC(C)=O)cc1`, the melting point was determined as 124 °C.

`FC(F)(F)C(F)(F)C(F)(F)C(F)(F)C(F)(F)C(F)(F)C(F)(F)C(F)(F)C(F)(F)C(F)(F)I` came in with a boiling point of 195 °C and a melting point of 66 °C.

Take `CC(C)(CO)[N+](=O)[O-]`: the melting point was 89.5 °C.

On to `Oc1c(Cl)cc(Cl)cc1Cl`, for which the log10 Koc (L/kg) was 3.03 and the ready biodegradability entry was “readily biodegradable”.

As to `O=c1nn[nH]c2ccccc12`, the melting point amounted to 217 °C.

`CCCCCCCCCCCCCC[N+](C)(C)C.[Br-]`: the melting point was determined as 248 °C.

In turn, `CCCSSCCC` showed a boiling point of 194 °C, a log10 vapour pressure (mmHg) of -0.291 and a melting point of -85.6 °C.

Turning to `BrC1CCC(Br)C(Br)CCC(Br)C(Br)CCC1Br` (stereo not drawn), the log10 vapour pressure (mmHg) is -6.33 and the ready biodegradability entry was “not readily biodegradable”.

For `Brc1ccc(Sc2ccc(Br)cc2)cc1`, the boiling point turned out to be 268 °C and the melting point was found to be 115 °C.

With `Cc1cnc2c(C(=O)O)c(Cl)ccc2c1`, the melting point is 244 °C.

`O=C1CCC(=O)N1Br` had a melting point of 174 °C.

`Fc1cccnc1` came in with a boiling point of 108 °C.

`COc1cc2c(cc1OC)[C@]1(O)C(=O)c3ccc4c(c3O[C@@H]1CO2)C=CC(C)(C)O4` displayed a melting point of 198 °C.

Compound `CCCC(=O)CC(C)C` had a boiling point of 155 °C.

`CC(=O)Nc1ccc(S(=O)(=O)Cl)cc1` yielded a melting point of 149 °C.

Regarding `c1ccc2c(c1)Nc1ccccc1S2`, the boiling point is 371 °C, the melting point came to 188 °C and the ready biodegradability entry is listed as “not readily biodegradable”.

In turn, `CCN(CC)CCOc1ccc(C(O)(Cc2ccc(Cl)cc2)c2ccc(C)cc2)cc1` (stereo not drawn) showed a melting point of 103 °C.

`CC[C@@H](C(=O)O)c1ccccc1`: the boiling point was 271 °C and the melting point was found to be 47.5 °C.

As to `Nc1ccc(Oc2ccc(N)cc2)cc1`, the boiling point is 350 °C and the ready biodegradability entry was “not readily biodegradable”.

In turn, `O=[N+]([O-])c1ccc(Sc2ccccc2)cc1` had a melting point of 56 °C.

For the compound `Cc1ccccc1F`, the boiling point came out at 115 °C, the log10 vapour pressure (mmHg) amounted to 1.39 and the melting point was -62 °C.

For `Cl/C=C\Cl`, the boiling point amounted to 54.4 °C, the log10 Henry constant (atm·m³/mol) is -2.17, the log10 Koa came out at 2.56 and the melting point is -64.9 °C.

`CC(=O)NS(=O)(=O)c1ccc(NC(=O)c2ccccc2C(=O)O)cc1` showed a melting point of 196 °C.

As to `O=C(c1ccccc1)c1ccc(O)cc1O`, the melting point is 144 °C and the ready biodegradability entry is on record as “not readily biodegradable”.

Compound `N#C/C=C(\Cl)C#N` returned a boiling point of 172 °C and a melting point of 60.5 °C.

Regarding `CCCCCCCCCCCCCCCCCC1CCCCC1`, the boiling point came to 397 °C and the melting point turned out to be 38 °C.

In turn, `CCSCCSP(=S)(OC)OC` yielded a log10 vapour pressure (mmHg) of -4.77.

On to `CC1CCCCC1`, for which the boiling point was determined as 101 °C, the log10 Henry constant (atm·m³/mol) was -0.367, the log10 Koa was 3.03 and the log10 biodegradation half-life (days) turned out to be 0.602. This compound came in with a log10 vapour pressure (mmHg) of 1.66 and a melting point of -127 °C.

`COc1ccc2c3c([nH]c2c1)[C@H]1C[C@H]2[C@H](C[C@@H](O)[C@H](OC)[C@H]2C(=O)O)CN1CC3` displayed a melting point of 242 °C.

In the case of `N#CC(F)(Cl)Cl`, the boiling point is 33 °C and the melting point is -110 °C.

The data set is the same for the next values; noted with them: fish.
In turn, `Sc1nc2ccccc2[nH]1` displayed a log10 BCF of 0.41.

For the compound `Cc1ccc([N+](=O)[O-])cc1`, the log10 BCF was 0.9 and the log10 biotransformation half-life (days) is -1.01.

In turn, `ClC(COCC(Cl)C(Cl)(Cl)Cl)C(Cl)(Cl)Cl` (stereo not drawn) registered a log10 BCF of 3.28.

`Oc1c(Cl)cc(Cl)cc1Cl` displayed a log10 BCF of 1.94 and a log10 biotransformation half-life (days) of -0.57.

With `c1ccc2c(c1)Nc1ccccc1S2`, the log10 BCF is 2.55 and the log10 biotransformation half-life (days) is 0.04.

The compound `CC1CCCCC1` registered a log10 BCF of 2.27 and a log10 biotransformation half-life (days) of 0.57.
